Results published in EP1997826A2, “Synthetic ligands for immunoglobulins and pharmaceutical compositions containing them” (Tecnogen S.p.A., priority 2007, dated 2008).
Like-named read-outs stand apart in the source and are kept apart here.

How the values were obtained:
[1] = test system: female mice of the Balb/c strain; assay type: in vivo, mouse; conditions: for Inhibition of skin reaction (%): 30 minutes before antigen; for dose producing 50% inhibition of the local allergic reaction: mouse, intraperitoneally
Description: Cutaneous passive anaphylaxis on the mouse ear was induced according to the procedure described by Inagaki et al., Int. Arch. Allergy Appl. Immunol. 1985, 78:113-117. Rat ascitic fluid containing specific IgEs against the ovalbumin antigen was injected in the ear of female mice of the Balb/c strain. Ascitic fluid at different dilutions (5-10-20 times in PBS) was applied by intradermal injections at a volume of 10 µl, permitting the IgEs present in the ascitic fluid to bind to the FcεRs of the local mast cells, sensitizing them. After 48 hours, 0.25 mg of ovalbumin and Evans Blue dye at a concentration of 1.8%, dissolved in 70 µl of PBS, were injected intravenously. After 30 minutes, the appearance, on the mouse ear, of stained areas in the dermis, with extent and intensity of staining proportional to the quantity of antigen-specific IgEs injected with the ascitic fluid, was observed. The experiment included a negative control, represented by the intradermal injection of 10 µl of PBS without ascitic fluid, and there was no corresponding appearance of staining. The mice were sacrificed and the ears were removed for extraction and measurement of the dye discharged in the skin reaction. Each ear was dissolved in 0.5 ml of 1 M KOH, incubating at 37°C for 16 hours. After incubation, 2 ml of a mixture of 0.6M phosphoric acid and acetone in the ratio 5:13 (v:v) was added. The sample was then stirred and filtered, and finally the amount of dye was determined with a spectrophotometer, taking readings at 620 nm. On the basis of the results obtained in the IgE-FcER linear binding assay, selecting as reference point the value of dilution of the ascitic fluid at which the most intense inflammatory reaction was observed, an assay of inhibition of the allergic reaction was performed using peptide IB and the comparative peptide. As described previously, intradermal injections of 10 µl of ascitic fluid, diluted 20 times in PBS, were applied to the ear lobe of a group of Balb/c mice, permitting the IgEs present in the ascitic fluid to bind to the FcεRs of the local mast cells, sensitizing them. After two days, various amounts of the peptides under investigation were dissolved in 100 µl of PBS and administered intraperitoneally to the sensitized mice. In particular, doses corresponding to 0.5 - 1 - 5 - 10 - 50 mg of peptide per kg of body weight of the mouse were used. 100 µl of PBS was injected as negative control. After 30 minutes the mice received the intravenous injection of the solution of ovalbumin and Evans Blue dye.

[2] = test system: male rats of the CD1 species; assay type: in vivo, rat; conditions: for Inhibition of skin reaction (%): intradermal with IgE ascitic fluid; for dose inhibiting the inflammatory reaction completely: rat, intradermal
Description: Passive cutaneous anaphylaxis in the rat was induced according to the procedure described by Ovary et al., 1952, Int. Arch. Allergy Appl. Immunol. 3:293-301. Rat ascitic fluid containing specific IgE against the ovalbumin antigen was injected in the shaved back of male rats of the CD1 species (Charles River, Italy). Ascitic fluid at different dilutions (from 20 to 20 000 times in PBS) was applied by intradermal injections at a volume of 50 µl, permitting the IgEs present in the ascitic fluid to bind to the FcεRs of the local mast cells, sensitizing them. On the next day, 1 mg of ovalbumin and the dye Evans Blue at a concentration of 2.0%, dissolved in 1 ml of PBS, were injected intravenously. After 30 minutes, the appearance, on the rats' backs, of stained areas in the dermis (wheals) with extent and intensity of staining proportional to the quantity of antigen-specific IgEs injected with the ascitic fluid, was observed. The experiment included a negative control, represented by the intradermal injection of 50 µl of PBS without ascitic fluid, and there was no corresponding appearance of staining. The rats were sacrificed and comparative evaluation of the dimensions and intensity of coloration of the wheals that developed was carried out by densitometric analysis of colour photographs of the animals taken with a single camera, a single film and in the same conditions of exposure times, lighting and orientation. The densitometric analyses were performed with the aid of the IMAGE PRO-PLUS software (Media Cybernetics, Inc.). On the basis of the results obtained in the IgE-FcεR linear binding assay (absence of inhibitors), selecting as reference point the value of dilution of the ascitic fluid at which the most intense inflammatory reaction was observed (the wheal with most intense staining, and consequently the maximum signal on the densitometer), an assay of inhibition of the allergic reaction was performed using peptide lB and the comparative peptide. For this purpose, 25 µl of ascitic fluid containing IgE suitably diluted was incubated with 25 µl of PBS containing different doses of the test compounds (0.025, 0.25, 2.5, 25, 250 and 2500 µg). A single rat was used for each compound. The back of each rat was shaved and was then subdivided into 8 sections by making marks to delimit the zones in which the injections were made. The mixture (50 µl) containing the ascitic fluid and the compounds at the various doses was administered intradermally at each selected point. An injection of 25 µl of ascitic fluid suitably diluted and incubated with 25 µl of PBS was used as the positive control, and 50 µl of PBS was used as the negative control. After 24 hours, the antigen was injected together with the Evans Blue dye as previously described and thirty minutes later, corresponding to the injection sites on the rats' backs, the appearance of coloured wheals was observed, with intensity and dimensions markedly less than in the zones in which higher concentrations of compounds had been applied.

[3] = molar value printed in brackets

(H-L-Cys(p-MeOBzl)-D-Arg-D-Thr-D-Tyr)4-L-Lys2-L-Lys-L-Lys-OH [Peptide IB]
Inhibition of skin reaction (%) ([1]; Dose of Peptide 0.5 mg/kg intraperitoneally): 10% | Inhibition of skin reaction (%) ([1]; Dose of Peptide 1.0 mg/kg intraperitoneally): 50% | Inhibition of skin reaction (%) ([1]; Dose of Peptide 5.0 mg/kg intraperitoneally): 65% | Inhibition of skin reaction (%) ([1]; Dose of Peptide 10.0 mg/kg intraperitoneally): 71% | Inhibition of skin reaction (%) ([1]; Dose of Peptide 50.0 mg/kg intraperitoneally): 85% | activity greater than the activity of the comparative peptide ([1]; mouse ear passive cutaneous anaphylaxis): about 7 times | dose producing 50% inhibition of the local allergic reaction [1]: 1 mg/kg | Inhibition of skin reaction (%) ([2]; Dose of Peptide 0.025 (µg/ml)): 35% | Inhibition of skin reaction (%) ([2]; Dose of Peptide 0.25 (µg/ml)): 60% | Inhibition of skin reaction (%) ([2]; Dose of Peptide 2.5 (µg/ml)): 100% | Inhibition of skin reaction (%) ([2]; Dose of Peptide 25 (µg/ml)): 100% | Inhibition of skin reaction (%) ([2]; Dose of Peptide 250 (µg/ml)): 100% | Inhibition of skin reaction (%) ([2]; Dose of Peptide 2500 (µg/ml)): 100% | activity greater than the activity of the comparative peptide ([2]; rat passive cutaneous anaphylaxis): approx. 15 times | dose inhibiting the inflammatory reaction completely [2]: 2.5 µg | dose inhibiting the inflammatory reaction completely [2, 3]: approx. 0.8 nmoles

C[C@H](O)[C@@H](NC(=O)[C@H](N)CCCNC(=N)N)C(=O)N[C@H](Cc1ccc(O)cc1)C(=O)NCCCC[C@H](NC(=O)[C@@H](Cc1ccc(O)cc1)NC(=O)[C@H](NC(=O)[C@H](N)CCCNC(=N)N)[C@H](C)O)C(=O)NCCCC[C@H](NC(=O)[C@H](CCCCNC(=O)[C@@H](Cc1ccc(O)cc1)NC(=O)[C@H](NC(=O)[C@H](N)CCCNC(=N)N)[C@H](C)O)NC(=O)[C@@H](Cc1ccc(O)cc1)NC(=O)[C@H](NC(=O)[C@H](N)CCCNC(=N)N)[C@H](C)O)C(=O)NCC(=O)O [Comparative peptide, (H-D-Arg-D-Thr-D-Tyr-)4-L-Lys2-L-Lys-Gly-OH, reference compound]
dose producing 50% inhibition of the local allergic reaction [1]: about 7 mg/kg | dose inhibiting the inflammatory reaction completely [2]: 25 µg | dose inhibiting the inflammatory reaction completely [2, 3]: 11.6 nmol
